# Results: patent US8101386B2, “Escherichia coli strains which over-produce L-threonine and processes for the production of L-threonine by fermentation” (Archer Daniels Midland Company, priority 2000, dated 2012)
# Experiments:
# E. coli strain G909 = assay: CPCA resistance test: growth in minimal medium E with CPCA; type: cell-based; conditions: 24 hr, 36° C.
# Protocol: (§1) To test for CPCA resistance, each strain was cultivated in 20 ml of the seed medium SM (32.5 g/L glucose; 1 g/L MgSO4 7H2O; 24.36 g/L K2HPO4; 9.52 g/L KH2PO4; 5 (NH4)2SO4; 15 g/L yeast extract; pH 7.2) at 36° C. for 17 hr with shaking. The cells were harvested and washed with minimal medium E. The cell suspension was then inoculated into a sterilized tube containing 3 ml of minimal medium E and 0, 0.1, 0.5, or 1 mM CPCA. After 24 hr cultivation as 36° C. with shaking, growth was determined by measuring the optical density at 660 nm. The results are shown below in Table 1 relative to growth in the absence of CPCA.
# E. coli strain 6-8 = assay: as above; type: cell-based; design: unit not given here; conditions: 24 hr, 36° C.
# Protocol: as §1
# threonyl tRNA-synthetase = threonyl tRNA-synthetase (Escherichia coli, UniProt P0A8M3); conditions: G. Nass et al. 1969; cited from earlier work
# threonyl tRNA-synthetase, sequence (P0A8M3 whole entry): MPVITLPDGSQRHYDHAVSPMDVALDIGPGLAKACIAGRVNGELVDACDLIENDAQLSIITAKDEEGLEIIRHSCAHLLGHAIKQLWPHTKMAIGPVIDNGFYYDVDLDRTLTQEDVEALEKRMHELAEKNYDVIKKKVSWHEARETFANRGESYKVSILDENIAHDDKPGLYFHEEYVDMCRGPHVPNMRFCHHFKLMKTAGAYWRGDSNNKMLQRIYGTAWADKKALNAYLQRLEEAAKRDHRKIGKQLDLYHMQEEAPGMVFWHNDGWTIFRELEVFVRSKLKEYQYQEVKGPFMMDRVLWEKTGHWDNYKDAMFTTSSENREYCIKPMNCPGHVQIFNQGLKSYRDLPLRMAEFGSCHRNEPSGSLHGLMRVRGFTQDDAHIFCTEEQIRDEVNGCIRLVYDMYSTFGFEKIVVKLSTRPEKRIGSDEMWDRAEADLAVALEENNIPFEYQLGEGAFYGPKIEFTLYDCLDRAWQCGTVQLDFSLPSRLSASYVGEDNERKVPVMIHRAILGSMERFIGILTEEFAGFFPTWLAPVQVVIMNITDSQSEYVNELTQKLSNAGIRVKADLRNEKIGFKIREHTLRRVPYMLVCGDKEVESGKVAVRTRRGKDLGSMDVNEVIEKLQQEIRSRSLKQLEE
# E. coli = conditions: G. Nass et al. 1969; cited from earlier work
SMILES,growth (optical density at 660 nm) relative to growth in the absence of CPCA (E. coli strain G909; 0.1 mM CPCA),growth (optical density at 660 nm) relative to growth in the absence of CPCA (E. coli strain G909; 0.5 mM CPCA),growth (optical density at 660 nm) relative to growth in the absence of CPCA (E. coli strain G909; 1 mM CPCA),growth (optical density at 660 nm) relative to growth in the absence of CPCA (E. coli strain 6-8; 0.1 mM CPCA),growth (optical density at 660 nm) relative to growth in the absence of CPCA (E. coli strain 6-8; 0.5 mM CPCA),growth (optical density at 660 nm) relative to growth in the absence of CPCA (E. coli strain 6-8; 1 mM CPCA),effect on enzymatic activity of threonyl tRNA-synthetase (threonyl tRNA-synthetase),effect on growth of E. coli (E. coli)
"O=C(O)C1CCCC1 [CPCA, cyclopentanecarboxylic acid]",24.2,2.9,0.9,134.5,141.0,184.5,–,–
C[C@@H]1C[C@H](C)C[C@H](C)[C@@H](O)CC(=O)O[C@H]([C@@H]2CCC[C@H]2C(=O)O)C/C=C/C=C(/C#N)[C@H](O)[C@@H](C)C1 [borrelidin],–,–,–,–,–,–,reduce the enzymatic activity,inhibit the growth
